Data: patent US20050222146A1, “N-substituted-n-sulfonylaminocyclopropane compounds and pharmaceutical use thereof” (priority 2003, published 2005)

Experiments:
[1] = target: T1, aggrecanase-1 (Homo sapiens, UniProt O75173); test: Aggrecanase-1 inhibitory action, Particle Assay (GAG release from aggrecan-containing polyacrylamide particles); type: biochemical; conditions: 37° C. for 15 hr, read-out: Experimental Example 1 IC50 AG1
T1 sequence (O75173 213-837): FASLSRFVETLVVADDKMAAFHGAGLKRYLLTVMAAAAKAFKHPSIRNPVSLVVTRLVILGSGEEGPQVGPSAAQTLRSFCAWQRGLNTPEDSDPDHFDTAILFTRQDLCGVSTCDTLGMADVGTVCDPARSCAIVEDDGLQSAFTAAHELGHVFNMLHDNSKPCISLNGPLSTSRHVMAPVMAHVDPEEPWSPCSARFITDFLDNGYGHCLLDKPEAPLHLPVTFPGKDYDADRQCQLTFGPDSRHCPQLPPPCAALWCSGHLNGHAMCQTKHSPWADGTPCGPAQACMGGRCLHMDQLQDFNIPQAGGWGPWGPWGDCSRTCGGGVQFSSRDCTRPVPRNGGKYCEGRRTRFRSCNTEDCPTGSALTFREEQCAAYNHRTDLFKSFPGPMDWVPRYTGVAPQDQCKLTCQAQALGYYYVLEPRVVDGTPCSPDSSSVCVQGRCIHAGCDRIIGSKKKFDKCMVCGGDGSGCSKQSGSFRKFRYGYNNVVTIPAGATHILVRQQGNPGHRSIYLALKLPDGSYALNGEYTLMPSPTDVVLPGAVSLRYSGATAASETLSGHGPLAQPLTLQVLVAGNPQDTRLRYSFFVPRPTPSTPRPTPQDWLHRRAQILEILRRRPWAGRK
Method in brief: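 IC50 (μM) derived from % inhibition, referenced to enzyme-free and inhibitor-free wells, of GAG release read as 1,9-dimethylmethylene blue absorbance at 595 nm (chondroitin sulfate standard). Substrate: aggrecan-bearing polyacrylamide particles, exposed to enzyme plus compound in Tris-HCl for 15 hr at 37 °C.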

[2] = target: T2, MMP-1 (Homo sapiens, UniProt P03956); test: MMP-1 inhibitory action, Type I collagen Activity Measurement kit (FITC-labeled collagen type I); type: biochemical; conditions: 37° C. for 3 hr, read-out: Experimental Example 2 IC50 MMP1
T2 sequence (P03956 100-469): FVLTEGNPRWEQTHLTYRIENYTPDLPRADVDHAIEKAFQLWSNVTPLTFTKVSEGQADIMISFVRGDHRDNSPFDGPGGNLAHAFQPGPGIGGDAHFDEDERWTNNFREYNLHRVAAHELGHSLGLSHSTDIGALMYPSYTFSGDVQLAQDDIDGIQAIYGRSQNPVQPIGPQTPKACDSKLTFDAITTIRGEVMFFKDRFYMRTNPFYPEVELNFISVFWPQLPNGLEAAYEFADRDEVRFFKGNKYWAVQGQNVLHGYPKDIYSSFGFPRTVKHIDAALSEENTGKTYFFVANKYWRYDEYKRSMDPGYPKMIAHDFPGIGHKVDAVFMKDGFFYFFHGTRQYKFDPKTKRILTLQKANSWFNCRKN

| SMILES | IC50 [1] | IC50 [2] |
| --- | --- | --- |
| O=C(O)c1ncccc1CN([C@]1(C(=O)O)C[C@H]1c1ccccc1)S(=O)(=O)c1ccc(-c2ccc(Cl)cc2)cc1 (relative stereo) [Example 1-73, 3-{[((1R*, 2S*)-1-carboxy-2-phenyl-cyclopropyl)-(4′-chloro-biphenyl-4-sulfonyl)-amino]-methyl}-pyridin-2-carboxylic acid] | < 1000 nM | ≥ 10000 nM |
| O=C(O)[C@@]1(N(CCNc2nnn[nH]2)S(=O)(=O)c2ccc(-c3ccc(Cl)cc3)cc2)C[C@H]1c1ccccc1 (relative stereo) [Example 1-77, (1R*,2S*)-1-{(4′-chloro-biphenyl-4-sulfonyl)-[2-(1H-tetrazol-5-ylamino)-ethyl]-amino}-2-phenyl-cyclopropanecarboxylic acid] | < 1000 nM | ≥ 10000 nM |
| O=C(O)c1nccn1CCN([C@]1(C(=O)O)C[C@H]1c1ccccc1)S(=O)(=O)c1ccc(-c2ccc(Cl)cc2)cc1 (relative stereo) [Example 1-78, 1-{2-[((1R*,2S*)-1-carboxy-2-phenyl-cyclopropyl)-(4′-chloro-biphenyl-4-sulfonyl)-amino]-ethyl}-1H-imidazole-2-carboxylic acid] | < 1000 nM | ≥ 10000 nM |
| O=C(O)[C@@]1(N(CCNS(=O)(=O)C(F)(F)F)S(=O)(=O)c2ccc(-c3ccc(Cl)cc3)cc2)C[C@H]1c1cccc(Oc2ccccc2)c1 (relative stereo) [Example 1-81, (1R*,2S*)-1-[(4′-chloro-biphenyl-4-sulfonyl)-(2-trifluoromethanesulfonylamino-ethyl)-amino]-2-(3-phenoxy-phenyl)-cyclopropanecarboxylic acid] | < 1000 nM | ≥ 10000 nM |
| CCN(CC)CCNc1cccc([C@@H]2C[C@@]2(C(=O)O)N(Cc2cccc(C(=O)O)c2)S(=O)(=O)c2ccc(-c3ccc(Cl)cc3)cc2)c1 (relative stereo) [Example 1-85, 3-{[{(1R*,2S*)-1-carboxy-2-[3-(2-diethylamino-ethylamino)-phenyl]-cyclopropyl}-(4′-chloro-biphenyl-4-sulfonyl)-amino]-methyl}-benzoic acid] | < 1000 nM | ≥ 10000 nM |
| O=C(O)c1cccc(CN([C@]2(C(=O)O)C[C@H]2c2cccc(Nc3ccccn3)c2)S(=O)(=O)c2ccc(-c3ccc(Cl)cc3)cc2)c1 (relative stereo) [Example 1-86, 3-{[{(1R*,2S*)-1-carboxy-2-[3-(pyridin-2-ylamino)-phenyl]-cyclopropyl}-(4′-chloro-biphenyl-4-sulfonyl)-amino]-methyl}benzoic acid] | < 100 nM | ≥ 10000 nM |
| O=C(O)c1cccc(CN([C@]2(C(=O)O)C[C@H]2c2cccc(OCCO)c2)S(=O)(=O)c2ccc(-c3ccc(Cl)cc3)cc2)c1 (relative stereo) [Example 1-88, 3-{[{(1R*,2S*)-1-carboxy-2-[3-(2-hydroxy-ethoxy)-phenyl]-cyclopropyl}-(4′-chloro-biphenyl-4-sulfonyl)-amino]-methyl}-benzoic acid] | < 100 nM | ≥ 10000 nM |
| O=C(O)[C@@]1(N(CCNS(=O)(=O)C(F)(F)F)S(=O)(=O)c2ccc(-c3ccc(Cl)cc3)cc2)C[C@H]1c1cccc(NCCN2CCCCC2)c1 (relative stereo) [Example 1-89, (1R*,2S*)-1-[(4′-chloro-biphenyl-4-sulfonyl)-(2-trifluoromethanesulfonylamino-ethyl)-amino]-2-[3-(2-piperidin-1-yl-ethylamino)-phenyl]-cyclopropanecarboxylic acid] | < 1000 nM | ≥ 10000 nM |
| O=C(O)[C@@]1(N(CCNS(=O)(=O)C(F)(F)F)S(=O)(=O)c2ccc(-c3ccc(Cl)cc3)cc2)C[C@H]1c1cccc(NS(=O)(=O)CCN2CCCCC2)c1 (relative stereo) [Example 1-90, (1R*,2S*)-1-[(4′-chloro-biphenyl-4-sulfonyl)-(2-trifluoromethanesulfonylamino-ethyl)-amino]-2-[3-(2-piperidin-1-yl-ethanesulfonylamino)-phenyl]-cyclopropanecarboxylic acid] | < 1000 nM | ≥ 10000 nM |
| O=C(O)c1cccc(CN([C@]2(C(=O)O)C[C@H]2c2cccc(NCCN3CCCCC3)c2)S(=O)(=O)c2ccc(-c3ccc(Cl)cc3)cc2)c1 (relative stereo) [Example 1-91, 3-{[{(1R*,2S*)-1-carboxy-2-[3-(2-piperidin-1-yl-ethylamino)-phenyl]-cyclopropyl}-(4′-chloro-biphenyl-4-sulfonyl)-amino]-methyl}-benzoic acid] | < 1000 nM | ≥ 10000 nM |
| O=C(O)CCCN([C@]1(C(=O)O)C[C@H]1c1ccccc1)S(=O)(=O)c1ccc(-c2ccc(Cl)cc2)cc1 (relative stereo) [Example 1-93, (1R*,2S*)-1-[(3-carboxy-propyl)-(4′-chloro-biphenyl-4-sulfonyl)-amino]-2-phenyl-cyclopropanecarboxylic acid] | < 1000 nM | ≥ 10000 nM |
| O=C(CO)NCCN([C@]1(C(=O)O)C[C@H]1c1ccccc1)S(=O)(=O)c1ccc(-c2ccc(Cl)cc2)cc1 (relative stereo) [Example 1-96, (1R*,2S*)-1-{(4′-chloro-biphenyl-4-sulfonyl)-[2-(2-hydroxy-acetylamino)-ethyl]-amino}-2-phenyl-cyclopropanecarboxylic acid] | < 1000 nM | ≥ 10000 nM |
| O=C(O)c1cccc(CN([C@]2(C(=O)O)C[C@H]2c2cccc(NC(=O)c3cccnc3)c2)S(=O)(=O)c2ccc(-c3ccc(Cl)cc3)cc2)c1 (relative stereo) [Example 1-99, 3-{[((1R*, 2S*)-1-carboxy-2-{3-[(pyridin-3-carbonyl)-amino]-phenyl}-cyclopropyl)-(4′-chloro-biphenyl-4-sulfonyl)-amino]-methyl}-benzoic acid] | < 100 nM | ≥ 10000 nM |
| O=C(O)c1cccc(CN([C@]2(C(=O)O)C[C@H]2c2cccc(OCCN3CCCC3)c2)S(=O)(=O)c2ccc(-c3ccc(Cl)cc3)cc2)c1 (relative stereo) [Example 1-100, 3-{[{(1R*,2S*)-1-carboxy-2-[3-(2-pyrrolidin-1-yl-ethoxy)-phenyl]-cyclopropyl}-(4′-chloro-biphenyl-4-sulfonyl)-amino]-methyl}-benzoic acid] | < 1000 nM | ≥ 10000 nM |
| O=C(O)c1cccc(CN([C@]2(C(=O)O)C[C@H]2c2cccc(OCCN3CCOCC3)c2)S(=O)(=O)c2ccc(-c3ccc(Cl)cc3)cc2)c1 (relative stereo) [Example 1-101, 3-{[{(1R*,2S*)-1-carboxy-2-[3-(2-morpholin-4-yl-ethoxy)-phenyl]-cyclopropyl}-(4′-chloro-biphenyl-4-sulfonyl)-amino]-methyl}-benzoic acid] | < 1000 nM | ≥ 10000 nM |
| CNC(=O)c1cnn(CCN([C@]2(C(=O)O)C[C@H]2c2ccccc2)S(=O)(=O)c2ccc(-c3ccc(Cl)cc3)cc2)c1 (relative stereo) [Example 1-106, (1R*,2S*)—{(4′-chloro-biphenyl-4-sulfonyl)-[2-(4-methylcarbamoyl-pyrazol-1-yl)-ethyl]-amino}-2-phenyl-cyclopropanecarboxylic acid] | < 1000 nM | ≥ 1000 nM |
| CC(C)(O)C(=O)NCCN([C@]1(C(=O)O)C[C@H]1c1ccccc1)S(=O)(=O)c1ccc(-c2ccc(Cl)cc2)cc1 (relative stereo) [Example 1-107, (1R*,2S*)-1-{(4′-chloro-biphenyl-4-sulfonyl)-[2-(2-hydroxy-2-methyl-propionylamino)-ethyl]-amino}-2-phenyl-cyclopropanecarboxylic acid] | < 1000 nM | ≥ 1000 nM |
| O=C(O)c1cccc(CN([C@]2(C(=O)O)C[C@H]2c2cccc(OCCn3cccn3)c2)S(=O)(=O)c2ccc(-c3ccc(Cl)cc3)cc2)c1 (relative stereo) [Example 1-108, 3-{[{(1R*,2S*)-1-carboxy-2-[3-(2-pyrazol-1-yl-ethoxy)-phenyl]-cyclopropyl}-(4′-chloro-biphenyl-4-sulfonyl)-amino]-methyl}-benzoic acid] | < 1000 nM | ≥ 10000 nM |
| O=C(O)[C@@]1(N(CCNc2nnn[nH]2)S(=O)(=O)c2ccc(-c3ccc(Cl)cc3)cc2)C[C@H]1c1cccc(Oc2ccccc2)c1 (relative stereo) [Example 1-109, (1R*,2S*)-1-{(4′-chloro-biphenyl-4-sulfonyl)-[2-(1H-tetrazol-5-ylamino)-ethyl]-amino}-2-(3-phenoxy-phenyl)-cyclopropanecarboxylic acid] | < 100 nM | ≥ 10000 nM |
